For assay [1], the system named is homologous passive cutaneous anaphylaxis (PCA). In words: Inhibitory activity against homologous passive cutaneous anaphylaxis (PCA) in rats. The following applies: 100 mg/kg, oral, 1 hour before the antigen. It counts as in vivo, rat (male Wistar). The protocol:
[II]Inhibitory activity against homologous passive cutaneous anaphylaxis (PCA) in rats
Antiserum was prepared according to I. Mota [Immunology, 7, 681(1964)] and the PCA reaction was conducted according to Maruyama et al. [Nippon yakurigakkaishi, 74, 179(1978)].
(1) Preparation of antiserum
An ovalbumin solution (2 mg/ml) was injected intramuscularly into both thighs of male Wistar rats weighing 200 to 260 g in a volume of 0.5 ml/100 g body weight, and pertussis vaccine (Bordetella pertussis, 2×10^10 /ml, Chibaken Kessei Kenkyujo) was intraperitoneally administered at 1 ml/rat. Twelve days later, blood was taken from posterior aorta under ether anesthesia and antiserum was stored at -80° C.
Group of 4 male Wistar rats weighing 180 to 210 g were employed. Back of the animals was shaved and each 0.05 ml of antiserum (1:32 dilution) was injected intradermally at four sites on the back. After 48 hours, 1 ml of a mixture of ovalbumin (1 mg/ml) and Evans blue (5 mg/ml) was injected intravenously into the tail. 30 Minutes later, the animals were killed under ether anesthesia. The blue-dyed area (mm^2) formed was measured and an inhibition rate(%) was calculated as compared with control.
Test compound suspended in a 2.5% acacia containing 0.2% Tween 80 was administered orally in a volume of 0.5 ml/100 g body weight 1 hour before the antigen. Tranilast was administered orally 30 minutes before the antigen.

The target of assay [2] is T1, epidermal growth factor acceptor-tyrosinekinase complex (Homo sapiens, UniProt P00533).
T1 construct: endogenous in cells; host or cells: A-431 (membrane specimen, not solubilized)
In words: Tyrosinekinase inhibitory activity (A-431 membrane specimen, EGF-stimulated, [γ-32P]ATP). As to conditions: read-out: Inhibition rate (tyrosinekinase). In kind it is biochemical, human (A-431 cell line derived from human cancerous cell). The method, then:
Tyrosinekinase inhibitory activity of the compound of the present invention was measured by employing a method for measuring tyrosinekinase activity by G. Carpentor or by S. Cohen et al. [J. Biol. Chem., 254, 4884 (1979); J. Biol. Chem., 257, 1523 (1982)].
Cell line A-431 derived from human cancerous cell was cultured at 37° C. under the condition of 5% CO2 in Dulbecco's modified Eagle medium (made by DAINIPPON PHARMACEUTICAL CO., LTD.) containing 10% fetal bovine serum, 50 μg/ml of streptomycin, 50 IU/ml of penicillin G and 50 μg/ml of canamycin. The obtained cells were treated according to the above Cohen or Graham et al. to give membrane specimen containing epidermal growth factor acceptor-tyrosinekinase complex (hereinafter referred to as "membrane specimen"). The membrane specimen was employed in the following measurement without solubilization.
Sample dissolved in dimethylsulfoxide was added to a mixture of 20 mM of N-2-hydroxyethylpyperadino-N'-2-ethanesulfonate buffer (pH 7.4), 1 mM of MnCl2, 7.5 μg of bovine serum albumin and the membrane specimen (10 μg as protein). After incubation at 0° C. for 5 minutes, 100 ng of epidermal growth factor (hereinafter referred to as "EGF" was added and the mixture was further incubated at 0° C. for 15 minutes. [γ-^32 P]ATP (3000 Ci/mmol, 0.1 μCi) was added to make final volume of 70 μl. After incubation at 0° C. for 15 minutes, 50 μl of the reaction solution was soaked into Wattman 3 MM filter paper and immediately the reaction was stopped by 10% trichloroacetic acid-10 mM sodium pyrophosphate aqueous solution. The filter paper was sufficiently washed with the same solution and then washed with ethanol and dried. Radioactivity present in the filter paper was measured by liquid scintillation counter (A). Similarly, radioactivity was measured in case of the reaction without EGF (B), the reaction without the sample (C), and the reaction without both EGF and the sample (D) as a control.
Tyrosinekinase inhibition rate (%) was calculated by the following equation. [formula]

The subject of assay [3] is SRS-A biosynthesis or release. The assay can be described thus: SRS-A biosynthesis or release inhibitory activity (ovalbumin-challenged sensitized guinea pig lung fragments, bioassay on guinea pig ileum). As to conditions: Cavia porcellus, read-out: Inhibition rate (SRS-A biosynthesis or release). It counts as cell-based, guinea pig (male Hartley). The method, then: [I] SRS-A biosynthesis or release inhibitory activity
SRS-A biosynthesis or release inhibitory activity was examined according to Koda et al. [Nippon yakurigakkaishi, 66, 194(1970)] and Kono-Watanabe et al. [J. Immunology, 125, 946(1980)].
Male Hartley guinea pigs weighing 350 to 450 g were sensitized by injecting once each 1 ml of an ovalbumin (100 mg/ml) into gluteus and peritoneal cavity. Four weeks after the injection, the animals were killed and then immediately the lung was perfused with cooled Tyrode's solution to remove blood. The lung was chopped into about 2 mm fragments and 500 mg of the fragments were suspended in 4.84 ml of Tyrode's solution, to which 0.01 ml of the test compound dissolved in dimethylsulfoxide (DMSO) was added. After incubation at 37° C. for 10 minutes, 0.15 ml of an ovalbumin (10 mg/ml) was added, followed by incubation at 37° C. for 20 minutes. In control, DMSO was added and the reaction was conducted in the same manner. The reaction mixture was filtered with gauze.
An amount of SRS-A in the filtrate was bioassayed using guinea pig ileum; i.e. the ileum (length: 2 to 3 cm) was suspended in Magnus tube containing aerated Tyrode's solution at 31° C. and, after the plateau of contraction was obtained, an amount of SRS-A in the above filtrate was bioassayed in the presence of 1 μM of atropine and 1 μM of pyrilamine. Inhibition rate (%) was calculated from a contraction in control as 100.

Assay [4] relates to antigen-induced anaphylactic shock death. In words: Protective effect against anaphylactic shock in actively sensitized guinea pigs. It counts as in vivo, guinea pig (male). The following applies: Cavia porcellus; 100 mg/kg, oral, 30 minutes before antigen inhalation; survival 90 minutes or more; read-out: Protecting Effect (Number of test animal survivied/Number of test animal) (converted). The method, then:
[III] Protective effect against anaphylactic shock in actively sensitized guinea pigs
Antigen-induced anaphylactic shock death was observed according to John P. Devlin [Pulmonary and Antiallergic Drugs, John Wiley & Sons, 155 (1985)].
Each 100 mg/kg of ovalbumin dissolved in physiological saline was injected into peritoneal cavity and into gluteus of male guinea pigs weighing 250 to 350 g. 3 Days later, the animals were further injected intraperitoneally with ovalbumin (100 mg/kg). Those animals were employed for testing 3 to 4 weeks after first sensitization. Actively sensitized guinea pigs were pretreated subcutaneously with pyrilamine (1 mg/kg, 30 min.) to suppress histamine-dependent response and with propanolol ([…], 10 min.) to enhance the response induced by other than histamine before the antigen.
The animal was placed in a desiccator with a capacity of about 5 l and 0.5% aqueous solution of ovalbumin was inhaled with ultrasonic type nebulizer for five minutes. Anaphylactic shock death was observed and the animals survived for 90 minutes or more after antigen were estimated to be protected. The compounds of the present invention and antiasmatic agent were administered orally 30 minutes before the antigen inhalation. The control received vehicle alone similarly.

SMILES strings stand for the structures.

T1 sequence (P00533 25-1210): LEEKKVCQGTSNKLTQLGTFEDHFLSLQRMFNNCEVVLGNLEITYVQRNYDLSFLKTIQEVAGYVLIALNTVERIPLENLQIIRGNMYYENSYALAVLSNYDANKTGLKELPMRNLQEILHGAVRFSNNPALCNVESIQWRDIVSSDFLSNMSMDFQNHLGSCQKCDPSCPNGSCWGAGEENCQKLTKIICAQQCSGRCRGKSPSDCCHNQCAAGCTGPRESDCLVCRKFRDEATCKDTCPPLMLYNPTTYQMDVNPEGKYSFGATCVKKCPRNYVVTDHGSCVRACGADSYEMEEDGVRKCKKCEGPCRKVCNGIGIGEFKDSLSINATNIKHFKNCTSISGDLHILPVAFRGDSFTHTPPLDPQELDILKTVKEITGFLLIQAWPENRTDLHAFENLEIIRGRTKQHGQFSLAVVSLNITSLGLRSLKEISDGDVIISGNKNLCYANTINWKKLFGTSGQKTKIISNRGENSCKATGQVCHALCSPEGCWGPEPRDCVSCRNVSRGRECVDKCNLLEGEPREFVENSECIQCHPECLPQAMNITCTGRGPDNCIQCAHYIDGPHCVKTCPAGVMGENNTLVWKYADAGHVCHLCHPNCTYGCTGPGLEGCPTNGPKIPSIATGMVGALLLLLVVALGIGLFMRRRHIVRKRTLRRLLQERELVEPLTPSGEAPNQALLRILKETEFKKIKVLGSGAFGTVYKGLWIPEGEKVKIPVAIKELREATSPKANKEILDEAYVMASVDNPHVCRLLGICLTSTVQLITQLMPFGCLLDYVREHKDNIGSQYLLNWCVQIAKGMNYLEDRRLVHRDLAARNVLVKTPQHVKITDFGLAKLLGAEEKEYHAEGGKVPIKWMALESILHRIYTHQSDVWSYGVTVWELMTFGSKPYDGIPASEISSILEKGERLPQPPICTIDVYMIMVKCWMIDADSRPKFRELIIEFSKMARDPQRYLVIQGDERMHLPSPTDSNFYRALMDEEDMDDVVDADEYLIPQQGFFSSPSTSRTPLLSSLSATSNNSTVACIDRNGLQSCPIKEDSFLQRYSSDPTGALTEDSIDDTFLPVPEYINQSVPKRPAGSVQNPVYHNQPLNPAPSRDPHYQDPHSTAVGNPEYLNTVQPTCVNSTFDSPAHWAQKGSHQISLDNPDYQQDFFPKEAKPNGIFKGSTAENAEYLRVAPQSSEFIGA
T1 sequence (P01132 977-1029 partner limits assumed): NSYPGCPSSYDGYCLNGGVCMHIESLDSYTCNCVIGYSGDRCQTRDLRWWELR

A word on the inhibition: it is the percentage by which the read-out fell short of the control. `CCOc1cc(C=C(C#N)C(N)=O)cc(CSc2ccccc2)c1O` [I]: in assay [1], the “Inhibition rate (PCA reaction, blue-dyed area)” value (“Inhibition rate” below) is on record as 21%. In assay [2], the inhibition at 10 µM came to 100% and the inhibition at 100 µM stood at 100%. In addition, the inhibition at 100 µM in assay [3] came out at 92%. Further, the responders at 100 mg/kg in assay [4] was 40%.

For `CCOC(=O)C(=Cc1cc(CSc2ccccc2)c(O)c(OCC)c1)S(C)(=O)=O` [XXII], in assay [1], the “Inhibition rate” value turned out to be 26%. Besides, in assay [2], the inhibition at 10 µM was determined as 64% and the inhibition at 100 µM is 80%. The inhibition at 100 µM in assay [3] was 27%. For the same compound, in assay [4], the responders at 100 mg/kg was 20%.

As for `CCOc1cc(C=C2CCOC2=O)cc(CSc2ccccc2)c1O` [XXIV], the “Inhibition rate” value in assay [1] turned out to be 26%. Moreover, the inhibition at 10 µM in assay [2] amounted to 33%. Besides, the inhibition at 100 µM in assay [2] came out at 50%; in assay [3], 28%. Further, the responders at 100 mg/kg in assay [4] is 20%.

Take `CCOc1cc(C=C2CCNC2=O)cc(CSc2ccccc2)c1O` [XXVII]: in assay [1], the “Inhibition rate” value was 25%. Besides, in assay [2], the inhibition at 10 µM was 96% and the inhibition at 100 µM was found to be 100%. For the same compound, in assay [3], the inhibition at 100 µM is 100%. In assay [4], the responders at 100 mg/kg was 75%.

Regarding `CCOc1cc(C=C2C(=O)NN(c3ccccc3)C2=O)cc(CSc2ccccc2)c1O` [XXXI], in assay [1], the “Inhibition rate” value stood at 30%. Besides, in assay [2], the inhibition at 10 µM was 92% and the inhibition at 100 µM was determined as 100%. In assay [3], the inhibition at 100 µM turned out to be 59%. The responders at 100 mg/kg in assay [4] is 20%.
